Assay results: patent publication US20250170114A1, “METHODS OF TREATMENT USING T-TYPE CALCIUM CHANNEL MODULATORS” (Praxis Precision Medicines, Inc., priority 2022, published 2025)

Tests used:
[1] = test system: upper limb tremor in participants with ET; assay: Phase 2 trial in essential tremor (Part A, Part B OLT, Part B RWD): TETRAS performance subscale, ADL and mADL scores; type: in vivo, human; parameters: key to TETRAS ADL Randomization Baseline Mean: TETRAS ADL: 12 items each rated 0 to 4
Source text: In some embodiments, the compound of Formula (I) or a pharmaceutically acceptable salt thereof (e.g., the HCl salt), when administered in combination with at least one of propranolol, primidone, topiramate, or a pharmaceutically acceptable salt thereof can reduce tremor severity by at least about 20% when measured by The Essential Tremor Rating Assessment Scale (TETRAS). The term “TETRAS” as used herein refers to a scale developed to quantify severity of ET and its impact on daily activities. It has an activities of daily living (ADL) section and a performance section. The ADL section has 12 items rated between 0 to 4, and the performance section has 9 items rated between 0 to 4. See, e.g., Elble, R. R., The Essential Tremor Rating Assessment Scale, J. Neurology Neuromed. 2016, 1(4):34-38. This multi-center clinical trial assessed the efficacy, safety, tolerability, and PK of the HCl salt compound of Formula (I) in participants aged 18 years of age or older who have had signs and symptoms consistent with ET for at least 3 years, with an onset before age 65. The clinical trial was conducted in 2 parts (Part A and Part B). Both parts consisted of 3 periods: Screening/Baseline, Intervention, and Safety Follow-up Periods. Part A of the clinical trial was open-label and assessed the safety and tolerability of the study drug, as well as the overall magnitude and pattern of change in ET severity. Daily dose levels of the HCl salt compound of Formula (I) were titrated from 20 mg (Day 1 to Day 7) to 40 mg (Days 8 to 14). Part B of the clinical trial consisted of both an open-label titration phase and a randomized, double-blind, placebo-controlled withdrawal phase. Part B assessed the safety and tolerability of the study drug, as well as the overall magnitude and pattern of change in ET severity and the duration of that effect. During the open-label titration phase, the daily dose levels of the HCl salt compound of Formula (I) were titrated from 20 mg (Days 1 to 3) to 40 mg (Days 4 to 7) to 60 mg (Days 8 to 14) to 80 mg (Days 15 to 21) to 100 mg (Days 22 to 28) to 120 mg (Days 29 to 42) or the highest tolerated dose. In the randomized, double-blind, placebo-controlled withdrawal phase, participants were either maintained on their final open-label dose or switched to placebo for an additional 14 days (Days 43 to 56). Part A. On Day 1, participants received a 20 mg dose of study drug, administered in the morning. Participants remained in a clinical setting under medical observation for approximately 6 hours. TETRAS Performance assessments were performed before dosing and 6 hours post-dose. After the first dose, participants continued QAM dosing at home after breakfast through Day 7. Participants returned to the clinic on Day 7 for efficacy testing at the 20 mg dose level. On Day 8, the dose increased to 40 mg QAM after breakfast through Day 14. Participants returned to the clinic on Day 14 for efficacy testing at the 40 mg dose level. Participants who agreed to optional additional PK sampling remained overnight in the clinic on Day 1, Day 7, and Day 14. Key safety measures included clinical laboratory evaluations, 12-lead ECG, C-SSRS, and vital signs. Key efficacy assessments included the TETRAS Performance subscale, TETRAS Upper Limb using accelerometry, CGI, and PGI-C. Blood samples were obtained for the determination of study drug plasma concentrations using a validated bioanalytical method and may also be used for method development and/or metabolite characterization. On Day 1, participants received a 20 mg dose of study drug on an empty stomach (at least 1 hour before breakfast). Participants remained in a clinical setting under medical observation for approximately 6 hours. TETRAS Performance assessments were performed before dosing and 6 hours (±2) post-dose. For dosing on Day 2 through Day 41, participants were instructed to dose QAM at least 1 hour before breakfast at home. Participants continued taking study drug 20 mg QAM at home through Day 3. […]

participants with ET = assay: Phase 2 trial: Clinical Global Impression-Improvement (CGI-I); type: in vivo, human
Source text: The Clinical Global Impression-Improvement (CGI-I) (Guy 1976) assesses the clinician's impression of the participant's functioning prior to and after initiating study medication. The clinician should use his/her total clinical experience with this patient population and rate the current severity of the participant's essential tremor symptoms on a 7-point scale from 1 (Normal, not at all ill) to 7 (Among the most extremely ill patients). Accordingly, in some embodiments, the methods of the present invention result in a decrease in CGI-I score compared to baseline, e.g., prior to treatment. Key safety measures included clinical laboratory evaluations, 12-lead ECG, C-SSRS, and vital signs. Key efficacy assessments included the TETRAS Performance subscale, TETRAS Upper Limb using accelerometry, CGI, and PGI-C. Blood samples were obtained for the determination of study drug plasma concentrations using a validated bioanalytical method and may also be used for method development and/or metabolite characterization. In both phases, key safety measures included clinical laboratory evaluations, 12-lead ECG, C-SSRS, and vital signs. Key efficacy assessments included the TETRAS Performance subscale, TETRAS Upper Limb using accelerometry, CGI, PGI-C, TETRAS ADL Subscale, QUEST, BDI-II, and BAI. Blood samples were obtained for the determination of study drug and metabolite plasma concentrations.

[2] = Plasma and brain tissue concentrations in rats after harmaline testing; type: in vivo, rat; conditions: collected immediately after harmaline testing
Description: Plasma and brain tissue sample collection (at 90 min post dosing of study compound) was evaluated in […]. N=15 in each group. Plasma and brain tissue samples were collected immediately after harmaline testing. Plasma sample number: 5×15=75. Brain tissue sample number: 5×15=75.

[3] = Part B OLT, Day 7, N = 10, change from pre-dose baseline
[4] = Part B OLT, Day 21, N = 12, change from pre-dose baseline
[5] = Part B OLT, Day 42, 6 hours post-dose, N = 11, change from pre-dose baseline
[6] = Part B RWD, Day 56, study drug group N = 6, change from randomization baseline, last line of the cell group
[7] = Part B RWD, study drug group N = 6, Day 42 post-dose value

SMILES: CC(C)(C)NC(=O)CN1CCC(CNC(=O)c2cc(F)cc(Cl)c2)CC1.Cl [Study drug]
- response (e.g., reduced tremor symptoms) of ET patients ([1]; ET patients who were taking propranolol hydrochloride, phase 2 clinical trial): responded favorably
- all TETRAS performance subscale-derived scores after washout ([1]; Part A, Day 21, after a 1-week washout period): returned to near pre-dose baseline levels
- mADL (TETRAS modified total score) CTA LS Mean % [1, 3]: −18.49%
- mADL (TETRAS modified total score) Score CFB LS Mean [1, 3]: −2.862
- TETRAS CULS Score CFB LS Mean [1, 4]: 1.320
- mADL (TETRAS modified total score) CTA LS Mean % [1, 4]: −14.31%
- mADL (TETRAS modified total score) Score CFB LS Mean [1, 4]: −2.812
- mADL (TETRAS modified total score) CTA LS Mean % [1, 5]: −42.04%
- mADL (TETRAS modified total score) Score CFB LS Mean [1, 5]: −6.669
- TETRAS ADL LS Mean Difference: Study drug - Placebo (95% CI) ([1]; Part B RWD, Day 56): −9.578 (−18.9020, −0.2546)
- TETRAS CULS LS Mean Difference: Study drug - Placebo (95% CI) ([1]; Part B RWD, Day 56): −1.896 (−8.7365, 4.9451)
- TETRAS PSTS LS Mean Difference: Study drug - Placebo (95% CI) ([1]; Part B RWD, Day 56): −3.025 (−11.2090, 5.1595)
- TETRAS ULS LS Mean Difference: Study drug - Placebo (95% CI) ([1]; Part B RWD, Day 56): −0.253 (−4.9188, 4.4129)
- mADL LS Mean Difference: Study drug - Placebo (95% CI) ([1]; Part B RWD, Day 56): −8.439 (−15.3856, −1.4916)
- mADL (TETRAS modified total score) LS Mean CFB ([1]; Part B RWD, Day 56, study drug group N = 6, change from randomization baseline): 1.350
- TETRAS ADL Mean CFB [1, 6]: 5.84
- mADL (TETRAS modified total score) Mean CFB [1, 6]: 8.45
- mADL LS Mean Difference: Study drug - Placebo (95% CI) ([1]; Part B RWD, Day 56, listed as study drug): −8.439
- TETRAS ADL LS Mean Difference: Study drug - Placebo (95% CI) ([1]; Part B RWD, Day 70): −5.988 (−16.8132, 4.8377)
- TETRAS CULS LS Mean Difference: Study drug - Placebo (95% CI) ([1]; Part B RWD, Day 70): −0.964 (−6.5938, 4.6660)
- TETRAS PSTS LS Mean Difference: Study drug - Placebo (95% CI) ([1]; Part B RWD, Day 70): −1.277 (−7.5286, 4.9741)
- TETRAS ULS LS Mean Difference: Study drug - Placebo (95% CI) ([1]; Part B RWD, Day 70): −0.316 (−3.3765, 2.7441)
- mADL LS Mean Difference: Study drug - Placebo (95% CI) ([1]; Part B RWD, Day 70): −3.236 (−12.3264, 5.8538)
- mADL (TETRAS modified total score) LS Mean CFB ([1]; Part B RWD, Day 70 (follow-up), study drug group N = 6, change from randomization baseline): 4.353
- TETRAS ADL Mean CFB ([1]; Part B RWD, Day 70 (follow-up), study drug group N = 6, change from randomization baseline, last line of the cell group): 18.73
- TETRAS ADL Randomization Baseline Mean [1, 7]: 22.17
- TETRAS CULS Randomization Baseline Mean [1, 7]: 19.33
- TETRAS PS Item 6: Archimedes Spiral (Left) Randomization Baseline Mean (SD) [1, 7]: 1.75 (0.524)
- TETRAS PS Item 6: Archimedes Spiral (Right) Randomization Baseline Mean (SD) [1, 7]: 1.75 (0.247)
- TETRAS PS Item 7: Handwriting Randomization Baseline Mean (SD) [1, 7]: 1.75 (1.405)
- TETRAS PSTS Randomization Baseline Mean [1, 7]: 22.83
- TETRAS ULS Randomization Baseline Mean [1, 7]: 10.25
- mADL (TETRAS modified total score) Randomization Baseline Mean [1, 7]: 12.17
- all TETRAS performance subscale-derived, TETRAS ADL-derived, and quality of life measures after washout ([1]; Part B, Day 70, after a 1-week washout period): returned to near pre-dose baseline levels
- CGI-I Score 5 minimally worse (participants with ET; Part B OLT (FAS), Day 7, n = 12): 1 n (%)
- CGI-I Score 5 minimally worse (participants with ET; Part B RWD (RWAS), Day 70, study drug group, n = 5, vs randomization baseline): 1 n (%)
- plasma and brain concentrations [2]: consistent with those measured in previous studies
